Where “and” joins values, the source holds several entries; their conditions need not be identical. Equal values may be shown once.
Key:
[1] = tested on: trabecular bone of lumbar vertebrae; experiment: Micro-CT of trabecular bone in L3 vertebral body after 8-week oral treatment; assay type: in vivo, mouse; settings: 10 mg/kg PO 3 times per week, 8 weeks, individual mice
[2] = molecular target: T1, human ADORA1 (Homo sapiens, UniProt P30542); experiment: PRESTO-Tango β-arrestin recruitment, ADORA1 transfected HTLA cells; assay type: cell-based; settings: for RLU: replicates (1)-(4)
T1 sequence (P30542 1-326): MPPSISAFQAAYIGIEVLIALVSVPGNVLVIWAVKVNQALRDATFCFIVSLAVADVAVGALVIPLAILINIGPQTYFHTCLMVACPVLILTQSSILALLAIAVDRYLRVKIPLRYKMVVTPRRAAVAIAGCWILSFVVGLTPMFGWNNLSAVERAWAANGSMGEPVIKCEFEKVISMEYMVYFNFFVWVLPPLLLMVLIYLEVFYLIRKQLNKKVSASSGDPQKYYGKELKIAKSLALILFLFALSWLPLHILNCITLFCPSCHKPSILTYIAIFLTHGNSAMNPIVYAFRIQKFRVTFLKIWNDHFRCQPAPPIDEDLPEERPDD

[3] = tested on: osteoblast markers Alp, Col1a1, Osteocalcin, Runx2; experiment: Quantitative RT-PCR of osteoblast markers in tibia after 8-week oral treatment; assay type: in vivo, mouse; settings: normalized to control group, 10 mg/kg PO, 8 weeks, individual mice
[4] = tested on: human aortic vascular smooth muscle cells (HAVSMC); experiment: CellTiter-Glo cytotoxicity assay in HAVSMC cells; assay type: cell-based; settings: experiments (1)-(3)
Excerpt: Fig. 4 RXFP2 agonists induce mineralization of primary human osteoblasts and are non-cytotoxic. a Mineral hydroxyapatite fluorescent quantification after 14-day treatment in HCO cells. Results were normalized to control DMSO as 100% mineralization. b HCO and c HAVSMC toxicity after 24-h treatment with RXFP2 agonists, normalized to DMSO treatment as 0% toxicity. Results are expressed as mean ± SEM of 3 independent experiments. *p < 0.05, *** p < 0.001 vs. DMSO using One-way ANOVA.
Cell viability studies were undertaken to identify potential cytotoxic effects of the RXFP2 agonists. HCO cells and human aortic vascular smooth muscle cells (HAVSMC) were treated for 24 h. […] At 8.3 µM and below, no toxicity was found in HCO cells and toxicity was below 20% in HAVSMC cells for all three compounds (Fig. 4b, c).
The ATP CellTiter-Glo Luminescent Cell Viability Assay (Promega, Madison, WI) was used to measure cytotoxicity induced by the compounds in HCO cells and human aortic vascular smooth muscle cells (HAVSMC) (ATCC, Manassas, VA). HCO and HAVSMC cells were seeded in 96-well plates at 3000 and 7000 cells per well respectively. Cells were incubated overnight, treated with compound or DMSO vehicle and incubated for 24 h at 37 °C, 5% CO2. […] Plates were shaken for 2 min, incubated at room temperature for 10 min and the luminescent signal was read on a CLARIOstar plate reader.

[5] = follow-up test using multiple compound concentrations

## O=C1Nc2ccc(-c3cc(C(F)(F)F)cc(C(F)(F)F)c3)cc2C(=O)N2CCN(C(=O)COc3ccc(OC(F)(F)F)cc3I)C[C@@H]12 [compound 6641]
[1]
  BV/TV (%): trend toward increased and 21.83% and 22.07% and 25.65% and 21.31% and 23.44% and 26.86% and 22.32% and 23.17% and 21.16% and 25.39% and 23.83% and 22.19% and 23.69% and 23.39% and 21.11%
  Conn.D: No changes and 105.367 1/mm^3 and 104.207 1/mm^3 and 139.801 1/mm^3 and 114.117 1/mm^3 and 100.266 1/mm^3 and 110.113 1/mm^3 and 116.566 1/mm^3 and 102.739 1/mm^3 and 105.531 1/mm^3 and 114.364 1/mm^3 and 111.763 1/mm^3 and 100.184 1/mm^3 and 109.218 1/mm^3 and 125.466 1/mm^3 and 120.228 1/mm^3
  Mat.D: No changes and 789.633 VOI-mg HA/ccm and 806.041 VOI-mg HA/ccm and 814.578 VOI-mg HA/ccm and 814.711 VOI-mg HA/ccm and 826.05 VOI-mg HA/ccm and 764.488 VOI-mg HA/ccm and 771.958 VOI-mg HA/ccm and 779.095 VOI-mg HA/ccm and 769.29 VOI-mg HA/ccm and 795.903 VOI-mg HA/ccm and 795.302 VOI-mg HA/ccm and 809.309 VOI-mg HA/ccm and 793.168 VOI-mg HA/ccm and 804.707 VOI-mg HA/ccm and 800.171 VOI-mg HA/ccm
  Tb.N: significant increase and 4.0038 mm-1 and 4.0307 mm-1 and 4.3607 mm-1 and 4.399 mm-1 and 4.0225 mm-1 and 4.1566 mm-1 and 4.1337 mm-1 and 4.2031 mm-1 and 4.3359 mm-1 and 3.9986 mm-1 and 4.1625 mm-1 and 3.9653 mm-1 and 4.2022 mm-1 and 4.1463 mm-1 and 4.168 mm-1
  Tb.Sp: decreased and 0.2416 mm and 0.2439 mm and 0.2173 mm and 0.2168 mm and 0.234 mm and 0.2335 mm and 0.2409 mm and 0.2383 mm and 0.2244 mm and 0.2446 mm and 0.2447 mm and 0.2276 mm and 0.235 mm and 0.2349 mm
  Tb.Th: significant increase and 0.0544 mm and 0.0558 mm and 0.0561 mm and 0.0524 mm and 0.0567 mm and 0.0611 mm and 0.0571 mm and 0.0582 mm and 0.0525 mm and 0.0589 mm and 0.057 mm and 0.056 mm and 0.0578 mm and 0.0547 mm and 0.0543 mm
[2]; 10 µM compound, basal level of detection 3-fold RLU
  β-arrestin recruitment, ADORA1 (mean ± SEM): 3.92 ± 0.15 fold RLU
[2]; Log [M] -4.52
  RLU: 12779.2 RLU and 12694.9 RLU
[2]; Log [M] -5
  RLU: 11730.3 RLU and 10165.7 RLU and 11306.6 RLU
[2]; Log [M] -5.52
  RLU: 8500.46 RLU and 7004.94 RLU and 7182.3 RLU and 7062.97 RLU
[2]; Log [M] -6
  RLU: 6700.59 RLU and 4967.56 RLU and 5863.08 RLU and 4072.06 RLU
[2]; Log [M] -6.52
  RLU: 3400.99 RLU and 2989.38 RLU and 3675.77 RLU and 3380.19 RLU
[2]; Log [M] -7
  RLU: 3045.21 RLU and 3372.53 RLU and 2679.57 RLU and 3462.3 RLU
[2]; Log [M] -7.52
  RLU: 2808.75 RLU and 2538.36 RLU and 2762.77 RLU and 2945.59 RLU
[2]; Log [M] -8
  RLU: 3154.68 RLU and 2602.94 RLU and 3418.51 RLU and 3449.16 RLU
[2]; Log [M] -8.52
  RLU: 2742.95 RLU and 3614.63 RLU and 3319.34 RLU and 3617.47 RLU
[2]; Log [M] -9
  RLU: 3242.68 RLU and 2896.28 RLU and 3413.04 RLU and 3315.08 RLU
[2]; Log [M] -9.52
  RLU: 3821.91 RLU and 2910.47 RLU and 2806.84 RLU and 4087.39 RLU
[2]; Log [M] -10
  RLU: 2500.19 RLU and 3249.78 RLU and 3509.58 RLU and 3875.86 RLU
[2]; Log [M] -10.52
  RLU: 3874.43 RLU and 2887.76 RLU and 2717.4 RLU and 3465.57 RLU
[2]; Log [M] -11
  RLU: 3657.22 RLU and 3613.21 RLU and 3589.08 RLU and 3231.32 RLU
[2]; Log [M] -11.52
  RLU: 2119.72 RLU and 4131.4 RLU and 3244.1 RLU and 3141.88 RLU
[2]; Log [M] -12
  RLU: 3765.12 RLU and 3810.55 RLU and 4489.16 RLU and 3752.34 RLU
[2]; [5]
  ADORA1 β-arrestin efficacy compared with NECA: much lower efficacy
  concentrations at which ADORA1 responded (β-arrestin): above 1 µM
[3]
  Alp gene expression: No significant differences and 0.88 and 1.46 and 1.09 and 1.63 and 1.11 and 1.2 and 1.13 and 0.7 and 1.17 and 0.71 and 0.82 and 1.61 and 1.28 and 1.02
  Col1a1 gene expression: No significant differences and 1.04 and 1.44 and 0.9 and 1.62 and 0.96 and 1.32 and 0.82 and 1.12 and 1.24 and 0.81 and 0.88 and 1.29 and 0.93
  Osteocalcin gene expression: significant increase and 1.47 and 0.79 and 1.35 and 1.31 and 2.35 and 1.34 and 2.19 and 1.5 and 2.42 and 1.3 and 1.4 and 1.23 and 2.1 and 1.83 and 1.39
  Runx2 gene expression: decrease and 0.41 and 0.71 and 0.95 and 0.75 and 1.16 and 0.6 and 0.57 and 0.72 and 0.73 and 0.89 and 0.83 and 1.42 and 1.07 and 0.66
[4]; Log [M] -5.08, 24 h
  % Tox: 15.51% and 24.11% and 15.33%
[4]; Log [M] -5.56, 24 h
  % Tox: 15.84% and 5.85%

Reference: paper PMC9636434, “Discovery of small molecule agonists of the Relaxin Family Peptide Receptor 2” (Communications Biology, 2022)
